From patent US11261175B2 (priority 2017, dated 2022)

What was measured:
Assay type in all cases: cell-based
[1] = tested on: HCV replicon NK5.1-Gluc (genotype 1b); experiment: Anti-HCV activity using HCV replicon NK5.1-Gluc (genotype 1b) in Huh 7.5.1 cells, luciferase readout; settings: Hepatitis C virus, 72 h; Huh 7.5.1 cells with NK5.1-Gluc replicon, 3 days, Gaussia luciferase; read-out: HCV wt. GT-1b
[2] = tested on: JFH5a-Rluc-ad34 virus (HCV GT-2a); experiment: Anti-HCV activity using HCVcc (JFH5a-Rluc-ad34 virus) in Huh 7.5.1 cells, Renilla luciferase readout; settings: Hepatitis C virus, GT2A, Huh-7.5.1, 72 h, read-out: HCV wt. GT-2a
Experimental: <Experimental Example 1> Measurement of Anti-HCV Activity of Compounds of Examples Using HCVcc
Step 1: Cell Line and Cell Culture
Huh 7.5.1 cells were grown in Dulbecco's Modified Eagle's medium (DMEM; Gibco) supplemented with antibiotics (100 U/mL penicillin, 10 μg/mL streptomycin) and 10% heat-inactivated fetal bovine serum (ΔFBS; PEAK) in a CO2 incubator at 37° C. with […].
Huh7.5.1 cells were transfected with in vitro transcription RNA of JFH5a-Rluc-ad34, a derivative of JFH1 with adaptive mutations in E2 and p7 regions, by electroporation. JFH5a-Rluc-ad34 virus contains Renilla luciferase (Rluc), which is convenient for virus proliferation assay. The cell culture medium containing HCV was collected 3-5 days after the electroporation and then filtered through a […] pore size filter.
Step 3: Antiviral Activity Test Using Infectious HCV Particles
Huh 7.5.1 cells were inoculated with JFH5a-Rluc-ad34 virus and incubated for 4 hours. Four hours after the virus inoculation, the Huh7.5.1 cells infected with HCV were cultured in the medium containing the compound of examples serially diluted. Three days later, the cells were harvested and the intracellular luciferase activity was measured using Renilla luciferase assay system (Promega). Finally, the luciferase activity was normalized with those obtained from the negative control cells (mock-treated cells).

[3] = tested on: HCV replicon S52-Feo (genotype 3a); experiment: Anti-HCV activity using HCV replicon S52-Feo (genotype 3a) in Huh 7.5.1 cells, luciferase readout; settings: Hepatitis C virus, 72 h; Huh 7.5.1 cells with S52-Feo replicon, 3 days, firefly luciferase; read-out: HCV wt. GT-3a
[4] = tested on: HCV genotype 1b replicon with NS5A L31V mutation; experiment: Transiently transfected assay of genotype 1b resistance mutant RNA L31V; settings: Hepatitis C virus, Huh-7.5.1, 72 h, read-out: HCV Mutation L31V
Excerpt: (§1) <Experimental Example 3> Transiently Transfected Assay of Genotype 1b Resistance Mutant RNAs
(§2) Replicon genomes substituted with Y93H, L31V and L31V+Y93H (double mutant), the resistance mutants to Daclatasvir with mutations at the NS5A protein domain 1.
(§3) These HCV resistance mutant genomes were linearized with scal restriction enzyme, and then the mutated HCV RNA was synthesized through in vitro transcription. Huh 7.5.1 cells were individually electroporated with HCV RNA with resistant mutations and plated in a 12 well plate. After 4 hours, Huh7.5.1 cells were seeded in DMEM containing the compounds of examples serially diluted for 3 days. Three days later, the cells were harvested and the intracellular luciferase activity was measured. The luciferase activity was normalized with those obtained from the negative control cells (mock-treated cells).

[5] = tested on: HCV genotype 1b replicon with NS5A Y93H mutation; experiment: Transiently transfected assay of genotype 1b resistance mutant RNA Y93H; settings: Hepatitis C virus, Huh-7.5.1, 72 h, read-out: HCV Mutation Y93H
Excerpt: as §1, §2, §3

[6] = tested on: HCV genotype 1b replicon with NS5A L31V+Y93H (double mutant); experiment: Transiently transfected assay of genotype 1b resistance mutant RNA L31V+Y93H (double mutant); settings: Hepatitis C virus, Huh-7.5.1, 72 h, read-out: HCV Mutation L31V + Y93H
Excerpt: as §1, §2, §3

SMILES | EC50 [1] [nM] | EC50 [2] [nM] | EC50 [3] [nM] | EC50 [4] [nM] | EC50 [5] [nM] | EC50 [6] [nM]
CCCCCC1(CCCCC)c2cc(NC(=O)[C@@H]3CCCN3C(=O)[C@H](NC(=O)OC)c3ccccc3)ccc2-c2ccc(NC(=O)[C@@H]3CCCN3C(=O)[C@H](NC(=O)OC)c3ccccc3)cc21 [Example 11, dimethyl ((1R,1′R)-((2S,2′S)-(((9,9-dipentyl-9H-fluorene-2,7-diyl)bis(azanediyl))bis(carbonyl))bis(pyrrolidine-2,1-diyl))bis(2-oxo-1-phenylethane-2,1-diyl))dicarbamate] | 0.001 to 0.01 | 1 to 100 | 0.01 to 0.1 | 0.001 to 0.01 | 1 to 100 | 1 to 100
CCCCCC1(CCCCC)c2cc(NC(=O)[C@@H]3CCCN3C(=O)[C@H](NC(=O)OC)c3ccccc3)ccc2-c2ccc(NC(=O)[C@@H]3CC4(CN3C(=O)[C@H](NC(=O)OC)c3ccccc3)OCCO4)cc21 [Example 12, methyl ((R)-2-((S)-2-((7-((S)-7-((R)-2-((methoxycarbonyl)amino)-2-phenylacetyl)-1,4-dioxa-7-azaspiro[4.4]nonane-8-carboxamido)-9,9-dipentyl-9H-fluorene-2-yl)carbamoyl)pyrrolidine-1-yl)-2-oxo-1-phenylethyl)carbamate] | 0.001 to 0.01 | 1 to 100 | 0.01 to 0.1 | 0.001 to 0.01 | 0.1 to 1 | 1 to 100
CCCCCC1(CCCCC)c2cc(NC(=O)[C@@H]3CC4(CN3C(=O)[C@H](NC(=O)OC)c3ccccc3)OCCO4)ccc2-c2ccc(NC(=O)[C@@H]3CC4(CN3C(=O)[C@H](NC(=O)OC)c3ccccc3)OCCO4)cc21 [Example 13, dimethyl ((1R,1′R)-((8S,8′S)-(((9,9-dipentyl-9H-fluorene-2,7-diyl)bis(azanediyl))bis(carbonyl))bis(1,4-dioxa-7-azaspiro[4.4]nonane-8,7-diyl))bis(2-oxo-1-phenylethane-2,1-diyl))dicarbamate] | 0.001 to 0.01 | 1 to 100 | 0.1 to 1 | 0.001 to 0.01 | 0.001 to 0.01 | 0.01 to 0.1
CCCCC1(CCCC)c2cc(NC(=O)[C@@H]3CC4(CN3C(=O)[C@H](NC(=O)OC)c3ccccc3)OCCO4)ccc2-c2ccc(-c3cnc([C@@H]4CCCN4C(=O)[C@@H](NC(=O)OC)C(C)C)[nH]3)cc21 [Example 14, methyl ((S)-1-((S)-2-(5-(9,9-dibutyl-7-((S)-7-((R)-2-((methoxycarbonyl)amino)-2-phenylacetyl)-1,4-dioxa-7-azaspiro[4.4]nonane-8-carboxyamido)-9H-fluorene-2-yl)-1H-imidazole-2-yl)pyrrolidine-1-yl)-3-methyl-1-oxobutane-2-yl)carbamate] | 0.001 to 0.01 | 0.01 to 0.1 | 0.01 to 0.1 | 0.001 to 0.01 | 0.001 to 0.01 | 1 to 100
CCCCC1(CCCC)c2cc(NC(=O)[C@@H]3CC4(CN3C(=O)[C@H](NC(=O)OC)c3ccccc3)OCCO4)ccc2-c2ccc(NC(=O)[C@@H]3CC4(CN3C(=O)[C@H](NC(=O)OC)c3ccccc3)OCCO4)cc21 [Example 15, dimethyl ((1R,1′R)-((8S,8′S)-(((9,9-dibutyl-9H-fluorene-2,7-diyl)bis(azanediyl))bis(carbonyl))bis(1,4-dioxa-7-azaspiro[4.4]nonane-8,7-diyl))bis(2-oxo-1-phenylethane-2,1-diyl))dicarbamate] | 0.001 to 0.01 | 1 to 100 | 0.1 to 1 | 0.001 to 0.01 | 0.01 to 0.1 | 0.01 to 0.1
CCCCC1(CCCC)c2cc(NC(=O)[C@@H]3CCCN3C(=O)[C@H](NC(=O)OC)c3ccccc3)ccc2-c2ccc(NC(=O)[C@@H]3CC4(CN3C(=O)[C@H](NC(=O)OC)c3ccccc3)OCCO4)cc21 [Example 16, methyl ((R)-2-((S)-8-((9,9-dibutyl-7-((S)-1-((R)-2-((methoxycarbonyl)amino)-2-phenylacetyl)pyrrolidine-2-carboxyamido)-9H-fluorene-2-yl)carbamoyl)-1,4-dioxa-7-azaspiro[4.4]nonane-7-yl)-2-oxo-1-phenylethyl)carbamate] | 0.001 to 0.01 | 1 to 100 | 0.01 to 0.1 | 0.001 to 0.01 | 0.01 to 0.1 | 1 to 100
CCCCCC1(CCCCC)c2cc(NC(=O)[C@@H]3CC(=O)CN3C(=O)[C@H](NC(=O)OC)c3ccccc3)ccc2-c2ccc(NC(=O)[C@@H]3CC(=O)CN3C(=O)[C@H](NC(=O)OC)c3ccccc3)cc21 [Example 17, dimethyl ((1R,1′R)-((5S,5′S)-(((9,9-dipentyl-9H-fluorene-2,7-diyl)bis(azanediyl))bis(carbonyl))bis(3-oxopyrrolidine-5,1-diyl))bis(2-oxo-1-phenylethane-2,1-diyl))dicarbamate] | 0.001 to 0.01 | 1 to 100 | 0.01 to 0.1 | 0.001 to 0.01 | 0.1 to 1 | 1 to 100
CCCCCC1(CCCCC)c2cc(NC(=O)[C@@H]3CC(=O)CN3C(=O)[C@H](NC(=O)OC)c3ccccc3)ccc2-c2ccc(NC(=O)[C@@H]3CC4(CN3C(=O)[C@H](NC(=O)OC)c3ccccc3)OCCO4)cc21 [Example 18, methyl ((R)-2-((S)-8-((7-((S)-1-((R)-2-((methoxycarbonyl)amino)-2-phenylacetyl)-4-oxopyrrolidine-2-carboxyamido)-9,9-dipentyl-9H-fluorene-2-yl)carbamoyl)-1,4-dioxa-7-azaspiro[4.4]nonane-7-yl)-2-oxo-1-phenylethyl)carbamate] | 0.01 to 0.1 | 1 to 100 | 0.1 to 1 | 0.01 to 0.1 | 0.1 to 1 | 1 to 100
CCCCCC1(CCCCC)c2cc(NC(=O)[C@@H]3CCCN3C(=O)[C@H](NC(=O)OC)c3ccccc3)ccc2-c2ccc(NC(=O)[C@@H]3CC(=O)CN3C(=O)[C@H](NC(=O)OC)c3ccccc3)cc21 [Example 19, methyl ((R)-2-((S)-2-((7-((S)-1-((R)-2-((methoxycarbonyl)amino)-2-phenylacetyl)pyrrolidine-2-carboxyamido)-9,9-dipentyl-9H-fluorene-2-yl)carbamoyl)-4-oxopyrrolidine-1-yl)-2-oxo-1-phenylethyl)carbamate] | 0.01 to 0.1 | 1 to 100 | 1 to 100 | 0.01 to 0.1 | 0.1 to 1 | 1 to 100
CCCCC1(CCCC)c2cc(NC(=O)[C@@H]3CC4(CC4)CN3C(=O)[C@H](NC(=O)OC)c3ccccc3)ccc2-c2ccc(NC(=O)[C@@H]3CC4(CC4)CN3C(=O)[C@H](NC(=O)OC)c3ccccc3)cc21 [Example 21, dimethyl ((1R,1′R)-((6S,6′S)-(((9,9-dibutyl-9H-fluorene-2,7-diyl)bis(azanediyl))bis(carbonyl))bis(5-azaspiro[2.4]heptane-6,5-diyl))bis(2-oxo-1-phenylethane-2,1-diyl))dicarbamate] | 0.001 to 0.01 | 0.1 to 1 | 0.01 to 0.1 | 0.01 to 0.1 | 1 to 100 | 1 to 100
